Test results from patent US20240217967A1, “INDOLINE DERIVATIVES AS DDRS INHIBITORS” (CHIESI FARMACEUTICI S.P.A., priority 2021, published 2024).
Values joined by “and” are separate entries in the source; they are usually repeats but may differ in a detail not shown here. Equal entries are not always repeated. Where two headings read alike, the source gives them in different places.

Key:
DDR1 [1] = target: T1, DDR1 (Homo sapiens, UniProt Q08345); assay: DDR1 LanthaScreen Europium Kinase Binding assay
T1 sequence (Q08345 19-913): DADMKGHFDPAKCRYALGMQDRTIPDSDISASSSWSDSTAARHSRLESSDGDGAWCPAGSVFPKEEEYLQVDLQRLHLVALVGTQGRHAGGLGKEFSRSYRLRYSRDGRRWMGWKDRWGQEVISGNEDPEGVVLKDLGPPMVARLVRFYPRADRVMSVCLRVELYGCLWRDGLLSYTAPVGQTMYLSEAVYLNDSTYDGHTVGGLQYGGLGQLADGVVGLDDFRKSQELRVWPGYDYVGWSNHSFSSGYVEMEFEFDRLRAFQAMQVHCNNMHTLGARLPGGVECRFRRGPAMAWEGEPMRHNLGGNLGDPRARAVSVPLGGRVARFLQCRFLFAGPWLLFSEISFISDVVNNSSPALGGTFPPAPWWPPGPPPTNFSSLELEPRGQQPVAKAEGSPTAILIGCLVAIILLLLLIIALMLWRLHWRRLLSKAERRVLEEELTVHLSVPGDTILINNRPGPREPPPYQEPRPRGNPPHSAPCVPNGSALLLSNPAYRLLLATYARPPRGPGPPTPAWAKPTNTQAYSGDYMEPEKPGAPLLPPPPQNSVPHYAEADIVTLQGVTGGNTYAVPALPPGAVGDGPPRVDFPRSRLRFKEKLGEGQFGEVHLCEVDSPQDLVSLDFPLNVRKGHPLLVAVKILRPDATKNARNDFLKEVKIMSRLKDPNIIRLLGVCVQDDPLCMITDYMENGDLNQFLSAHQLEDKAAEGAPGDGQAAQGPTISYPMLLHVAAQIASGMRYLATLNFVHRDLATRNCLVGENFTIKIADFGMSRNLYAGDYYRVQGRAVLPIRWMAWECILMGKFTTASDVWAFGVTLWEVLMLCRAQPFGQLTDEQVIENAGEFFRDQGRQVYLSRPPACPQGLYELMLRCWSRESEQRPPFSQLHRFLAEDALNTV
Protocol: (§1) DDR1 and DDR2 binding assays were performed using Life Technologies LanthaScreen™ Europium Kinase Binding assay. The compounds were incubated with 5 nM DDR1 (Carna Biosciences) or 5 nM DDR2 (Life Technologies) for 1 hour at room temperature in white 384-well OptiPlate (PerkinElmer), containing 20 nM or 10 nM Kinase Tracer 178 respectively and 2 nM Europium labelled anti-GST antibody (Life Technologies) in assay buffer (50 mM HEPES pH 7.5, 10 mM MgCI2, 1 mM EGTA and 0.01% BRIJ35). The ratio of fluorescence emission 665 nm/615 nm after excitation at 340 nm was obtained using the Tecan Spark 20M plate reader. IC50 values were determined in GraphPad Prism 7.0 software, using 4 parameter model: log(inhibitor) vs. response. IC50 values were converted in Ki using the Cheng-Prusoff equation (Ki=IC50/(1+[Tracer]/Kd).

DDR1 [2] = target: T1, DDR1; assay: DDR1 cell based assay (PathHunter U2OS DDR1, collagen II stimulation); conditions: U2OS-DDR1 cells, bovine Type II Collagen stimulation
Protocol: The inhibition of DDR1 receptor activation by compounds was evaluated by PathHunter® U2OS DDR1 assay (Eurofins DiscoverX), according to the manufacturer's instructions. Briefly, U2OS-DDR1 cells were seeded in white 384-well plates at a density of 5000 cells/well and incubated for 2 hours at 37° C. and 5% CO2. Cells were then treated with compounds at different concentrations and incubated for 30 minutes, before stimulation with bovine Type II Collagen 20 μg/ml and incubation overnight at 37° C. and 5% CO2. PathHunter Detection Reagents were prepared according to the protocol provided by DiscoverX and 20 μl/well of this mix were added to each well. After incubating the plates for 1 hour at room temperature in the dark, luminescence signal was acquired with a plate reader. Raw data were normalized to vehicle control (0% for normalization) and positive control (100% for normalization; cells treated with 20 μg/ml collagen II) and IC50 parameters were calculated in GraphPad Prism 8.0 software, using sigmoidal dose-response curve fitting with variable slope.

DDR2 = target: T2, DDR2 (Homo sapiens, UniProt Q16832); assay: DDR2 LanthaScreen Europium Kinase Binding assay
T2 sequence (Q16832 22-855): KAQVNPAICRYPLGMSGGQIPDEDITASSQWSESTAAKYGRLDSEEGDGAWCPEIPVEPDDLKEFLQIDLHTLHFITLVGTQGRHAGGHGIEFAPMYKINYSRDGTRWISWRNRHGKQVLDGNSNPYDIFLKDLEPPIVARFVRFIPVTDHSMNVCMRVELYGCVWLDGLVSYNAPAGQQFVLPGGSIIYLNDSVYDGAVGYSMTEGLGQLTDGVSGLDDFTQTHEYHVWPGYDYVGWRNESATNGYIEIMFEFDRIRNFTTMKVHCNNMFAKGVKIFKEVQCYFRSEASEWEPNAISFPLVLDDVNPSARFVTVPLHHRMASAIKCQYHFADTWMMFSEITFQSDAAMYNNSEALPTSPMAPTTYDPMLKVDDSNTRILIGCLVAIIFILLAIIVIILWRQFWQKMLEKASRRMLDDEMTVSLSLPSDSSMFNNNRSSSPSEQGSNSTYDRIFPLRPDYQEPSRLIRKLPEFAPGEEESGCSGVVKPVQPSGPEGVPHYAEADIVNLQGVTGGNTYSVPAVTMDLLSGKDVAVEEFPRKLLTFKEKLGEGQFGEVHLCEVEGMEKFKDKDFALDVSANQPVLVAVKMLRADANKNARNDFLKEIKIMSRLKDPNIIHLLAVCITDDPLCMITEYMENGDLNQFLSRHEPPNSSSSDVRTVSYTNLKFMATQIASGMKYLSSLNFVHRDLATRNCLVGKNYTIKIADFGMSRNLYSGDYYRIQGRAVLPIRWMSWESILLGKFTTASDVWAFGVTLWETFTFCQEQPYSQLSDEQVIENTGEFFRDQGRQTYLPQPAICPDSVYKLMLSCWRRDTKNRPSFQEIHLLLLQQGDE
Protocol: as §1

[3] = binding affinity, IC50 converted in Ki using Cheng-Prusoff, read-out: Ki DDR1
[4] = binding affinity, IC50 converted in Ki using Cheng-Prusoff, read-out: Ki DDR2
[5] = binding assay, Ki from IC50 by Cheng-Prusoff, read-out: DDR1 Ki
[6] = binding assay, Ki from IC50 by Cheng-Prusoff, read-out: DDR2 Ki

For `Cc1n[nH]c2ncc(CN3CCc4ccc(C(=O)Nc5cc(CN(C)C)nc(C(F)(F)F)c5)cc43)cc12` [Example 82, N-(2-((dimethylamino)methyl)-6-(trifluoromethyl)pyridin-4-yl)-1-((3-methyl-1H-pyrazolo[3,4-b]pyridin-5-yl)methyl)indoline-6-carboxamide], the Ki (DDR1 [1]; [3]) was < 0.025 µM, the IC50 (DDR1 [2]) was < 0.025 µM and the Ki (DDR2; [4]) was < 0.025 µM.

`CC(C)(C)c1cc(NC(=O)c2ccc3c(c2)N(Cc2cnc4[nH]ncc4c2)CC3)on1` [Example 78, 1-((1H-pyrazolo[3,4-b]pyridin-5-yl)methyl)-N-(3-(tert-butyl)isoxazol-5-yl)indoline-6-carboxamide] was tested, and the Ki (DDR1 [1]; [3]) was < 0.025 µM, the IC50 (DDR1 [2]) was < 0.025 µM and the Ki (DDR2; [4]) was < 0.025 µM.

In the case of `CN1CCN(Cc2ccc(NC(=O)c3ccc4c(c3)N(Cc3cnc5c(c3)CCN5)CC4)cc2C(F)(F)F)CC1` [Example 77, 1-((2,3-dihydro-1H-pyrrolo[2,3-b]pyridin-5-yl)methyl)-N-(4-((4-methylpiperazin-1-yl)methyl)-3-(trifluoromethyl)phenyl)indoline-6-carboxamide], the Ki (DDR1 [1]; [3]) is reported as < 0.025 µM, the IC50 (DDR1 [2]) is reported as < 0.025 µM and the Ki (DDR2; [4]) is reported as 0.025 to 0.05 µM.

In the case of `O=C(Nc1cc(F)cc(C(F)(F)F)c1)c1ccc2c(c1)N(Cc1cnc3cnccn13)CC2` [Example 41, N-(3-fluoro-5-(trifluoromethyl)phenyl)-1-(imidazo[1,2-a]pyrazin-3-ylmethyl)indoline-6-carboxamide], the Ki (DDR1 [1]; [3]) is reported as < 0.025 µM, the IC50 (DDR1 [2]) is reported as 0.025 to 0.05 µM and the Ki (DDR2; [4]) is reported as < 0.025 µM.

In the case of `COc1ccc(NC(=O)c2ccc3c(c2)N(Cc2cnc4cnccn24)CC3)cc1C(F)(F)F` [Example 46, 1-(imidazo[1,2-a]pyrazin-3-ylmethyl)-N-(4-methoxy-3-(trifluoromethyl)phenyl)indoline-6-carboxamide], the Ki (DDR1 [1]; [3]) is reported as < 0.025 µM, the IC50 (DDR1 [2]) is reported as 0.05 to 0.08 µM and the Ki (DDR2; [4]) is reported as 0.025 to 0.05 µM.

For `Cc1cn(-c2cc(NC(=O)c3ccc4c(c3)N(Cc3cnc5[nH]ncc5c3)CC4C)cc(C(F)(F)F)c2)cn1` (stereo not shown) [Example 24, 1-((1H-pyrazolo[3,4-b]pyridin-5-yl)methyl)-3-methyl-N-(3-(4-methyl-1H-imidazol-1-yl)-5-(trifluoromethyl)phenyl)indoline-6-carboxamide], the Ki (DDR1 [1]; [3]) was 0.025 to 0.05 µM, the IC50 (DDR1 [2]) was < 0.025 µM and the Ki (DDR2; [4]) was 0.025 to 0.05 µM.

`Cc1cn(-c2cc(C(=O)Nc3ccc4c(c3)N(Cc3cnc5ccccn35)CC4)cc(C(F)(F)F)c2)cn1` [Example 23, N-(1-(imidazo[1,2-a]pyridin-3-ylmethyl)indolin-6-yl)-3-(4-methyl-1H-imidazol-1-yl)-5-(trifluoromethyl)benzamide] was tested, and the Ki (DDR1 [1]; [3]) was < 0.025 µM, the IC50 (DDR1 [2]) was 0.05 to 0.08 µM and the Ki (DDR2; [4]) was < 0.025 µM.

`CC1CN(Cc2cnc3ccccn23)c2cc(C(=O)Nc3cccc(C(F)(F)F)c3)ccc21` (stereo not shown) [Example 33, 1-(imidazo[1,2-a]pyridin-3-ylmethyl)-3-methyl-N-(3-(trifluoromethyl)phenyl)indoline-6-carboxamide] was tested, and the Ki (DDR1 [1]; [3]) was < 0.025 µM, the IC50 (DDR1 [2]) was 0.05 to 0.08 µM and the Ki (DDR2; [4]) was 0.025 to 0.05 µM.

In the case of `CN1CCN(Cc2cc(NC(=O)c3ccc4c(c3)N(Cc3cnc5ccccn35)CC4)cc(C(F)(F)F)c2)CC1` [Example 11, 1-(imidazo[1,2-a]pyridin-3-ylmethyl)-N-(3-((4-methylpiperazin-1-yl)methyl)-5-(trifluoromethyl)phenyl)indoline-6-carboxamide], the Ki (DDR1 [1]; [3]) is reported as < 0.025 µM, the IC50 (DDR1 [2]) is reported as 0.05 to 0.08 µM and the Ki (DDR2; [4]) is reported as < 0.025 µM.

For `Cc1cn(-c2cc(C(=O)Nc3ccc4c(c3)N(C(=O)c3cnc5cnccn35)CC4)cc(C(F)(F)F)c2)cn1` [Example 20, N-(1-(imidazo[1,2-a]pyrazine-3-carbonyl)indolin-6-yl)-3-(4-methyl-1H-imidazol-1-yl)-5-(trifluoromethyl)benzamide], the Ki (DDR1 [1]; [3]) was < 0.025 µM, the IC50 (DDR1 [2]) was 0.025 to 0.05 µM and the Ki (DDR2; [4]) was < 0.025 µM.

`O=C(Nc1cc(OCCN2CCCC2)cc(C(F)(F)F)c1)c1ccc2c(c1)N(Cc1cnc3cnccn13)CC2` [Example 52, 1-(imidazo[1,2-a]pyrazin-3-ylmethyl)-N-(3-(2-(pyrrolidin-1-yl)ethoxy)-5-(trifluoromethyl)phenyl)indoline-6-carboxamide] was tested, and the Ki (DDR1 [1]; [3]) was < 0.025 µM, the IC50 (DDR1 [2]) was 0.05 to 0.08 µM and the Ki (DDR2; [4]) was < 0.025 µM.

In the case of `CC1CN(Cc2cnc3cnccn23)c2cc(C(=O)Nc3cncc(C(F)(F)F)c3)ccc21` (stereo not shown) [Example 92, 1-(imidazo[1,2-a]pyrazin-3-ylmethyl)-3-methyl-N-(5-(trifluoromethyl)pyridin-3-yl)indoline-6-carboxamide], the Ki (DDR1 [1]; [3]) is reported as < 0.025 µM, the IC50 (DDR1 [2]) is reported as 0.025 to 0.05 µM and the Ki (DDR2; [4]) is reported as < 0.025 µM.

With `CN(C)Cc1cc(NC(=O)c2ccc3c(c2)N(Cc2cnc4cnccn24)CC3)cc(C(F)(F)F)c1` [Example 51, N-(3-((dimethylamino)methyl)-5-(trifluoromethyl)phenyl)-1-(imidazo[1,2-a]pyrazin-3-ylmethyl)indoline-6-carboxamide] the Ki (DDR1 [1]; [3]) was < 0.025 µM, the IC50 (DDR1 [2]) was 0.025 to 0.05 µM and the Ki (DDR2; [4]) was < 0.025 µM.

For `Cc1n[nH]c2ncc(CN3CCc4ccc(C(=O)Nc5cncc(C(F)(F)F)c5)cc43)cc12` [Example 71, 1-((3-methyl-1H-pyrazolo[3,4-b]pyridin-5-yl)methyl)-N-(5-(trifluoromethyl)pyridin-3-yl)indoline-6-carboxamide], the Ki (DDR1 [1]; [3]) was < 0.025 µM, the IC50 (DDR1 [2]) was < 0.025 µM and the Ki (DDR2; [4]) was < 0.025 µM.

With `CC1CN(Cc2cnc3[nH]ccc3c2)c2cc(C(=O)Nc3cccc(C(F)(F)F)c3)ccc21` (stereo not shown) [Example 32, 1-((1H-pyrrolo[2,3-b]pyridin-5-yl)methyl)-3-methyl-N-(3-(trifluoromethyl)phenyl)indoline-6-carboxamide] the Ki (DDR1 [1]; [3]) was 0.025 to 0.05 µM, the IC50 (DDR1 [2]) was < 0.025 µM and the Ki (DDR2; [4]) was 0.025 to 0.05 µM.

`CC1CN(Cc2cnc3[nH]ncc3c2)c2cc(C(=O)Nc3cncc(C(F)(F)F)c3)ccc21` (stereo not shown) [Example 91, 1-((1H-pyrazolo[3,4-b]pyridin-5-yl)methyl)-3-methyl-N-(5-(trifluoromethyl)pyridin-3-yl)indoline-6-carboxamide] was tested, and the Ki (DDR1 [1]; [3]) was < 0.025 µM, the IC50 (DDR1 [2]) was < 0.025 µM and the Ki (DDR2; [4]) was < 0.025 µM.

In the case of `Cc1n[nH]c2ncc(CN3CCc4ccc(C(=O)Nc5cc(C(=O)N6CCN(C)CC6)cc(C(F)(F)F)c5)cc43)cc12` [Example 74, 1-((3-methyl-1H-pyrazolo[3,4-b]pyridin-5-yl)methyl)-N-(3-(4-methylpiperazine-1-carbonyl)-5-(trifluoromethyl)phenyl)indoline-6-carboxamide], the Ki (DDR1 [1]; [3]) is reported as < 0.025 µM, the IC50 (DDR1 [2]) is reported as < 0.025 µM and the Ki (DDR2; [4]) is reported as < 0.025 µM.

With `Cc1n[nH]c2ncc(CN3CCc4ccc(C(=O)Nc5cc(CN6CCCC6)cc(C(F)(F)F)c5)cc43)cc12` [Example 66, 1-((3-methyl-1H-pyrazolo[3,4-b]pyridin-5-yl)methyl)-N-(3-(pyrrolidin-1-ylmethyl)-5-(trifluoromethyl)phenyl)indoline-6-carboxamide] the Ki (DDR1 [1]; [3]) was < 0.025 µM, the IC50 (DDR1 [2]) was < 0.025 µM and the Ki (DDR2; [4]) was < 0.025 µM.

In the case of `CN1CCN(Cc2cc(C(=O)Nc3ccc4c(c3)N(C(=O)Cc3cnc5ccccn35)CC4)cc(C(F)(F)F)c2)CC1` [Example C2, N-(1-(2-(imidazo[1,2-a]pyridin-3-yl)acetyl)indolin-6-yl)-3-((4-methylpiperazin-1-yl)methyl)-5-(trifluoromethyl)benzamide], the Ki (DDR1 [1]; [5]) is reported as 0.6 µM and the Ki (DDR2; [6]) is reported as 58 µM.

`CN1CCN(Cc2cc(NC(=O)c3ccc4c(c3)N(C(=O)Cc3cnc5ccccn35)CC4)cc(C(F)(F)F)c2)CC1` [Example C1, 1-(2-(imidazo[1,2-a]pyridin-3-yl)acetyl)-N-(3-((4-methylpiperazin-1-yl)methyl)-5-(trifluoromethyl)phenyl)indoline-6-carboxamide] was tested, and the Ki (DDR1 [1]; [5]) was > 0.6 µM and 58 µM and the Ki (DDR2; [6]) was 58 µM.
